Measured values published in patent publication US20250353891A1 (MEDIMMUNE LIMITED, priority 2022, published 2025).
Where two headings read alike, the source gives them in different places. Starred links: 1 amine or outer side, 2 acyl side, 3 side chain; linkers in the order of their positions; H or OH if unused. Non-standard residues stand in square brackets, D forms with d. Residues, ends and D or L forms follow the SMILES beside them. Groups on a side chain read outwards from the residue. *: point of attachment. C20 diacid = O=C(O)CCCCCCCCCCCCCCCCCCC(=O)*; C18 diacid = O=C(O)CCCCCCCCCCCCCCCCC(=O)*; γGlu = O=C(O)[C@H](CCC(=O)[*:2])N[*:1]; αMeF = C[C@](N)(Cc1ccccc1)C(=O)O; AEEA = NCCOCCOCC(=O)O; Aib = CC(C)(N)C(=O)O

What was measured:
[1] = Proteolytic resistance to FasSSGF containing porcine pancreatic pepsin; type: in vitro ADME; conditions: pig, simulated gastric fluid
Description: Stimulated Gastric Fluid (FasSSGF) Containing Porcine Pancreatic Pepsin Lyophilized porcine pancreatic pepsin (Sigma: P7012) was reconstituted to 0.5 mg/mL (˜2500 units/mL) in freshly prepared FasSSGF (Biorelevant media) to give the enzyme stock solution. Peptide stock solution was prepared to a concentration of 250 μM (˜1.0 mg/mL) in FasSSGF. 200 μL ([…], ˜250 units) of pepsin stock solution was added to 200 μL of peptide solution (1.0 mg/mL, ˜100 μg of peptide, ˜25 nmoles) and the mixture was co-incubated in a temperature-regulated incubator at 37° C. for the duration of the experiment. 30 μL aliquot of the peptide-enzyme mixture was periodically withdrawn (t=0, 5, 10, 15, and 30 min) and quenched immediately by addition of 80 μL of 0.1M ammonium bicarbonate solution in water/acetonitrile (4:1, pH 8) to arrest proteolytic activity. 30 μL aliquot was analyzed by analytical RP-HPLC. Analytical RP-HPLC method: Agilent Polaris C8-A column (4.6×100 mm, 3 micron) eluted with a linear binary gradient of 10-90% MeCN (0.1% TFA v/v) in water (0.1% TFA v/v) over either 10 or 15 mins at 1.5 mL min-1 at 40° C. with detection by UV absorption at 210 nm. Manual integration (AUC) allowed estimation of remaining intact peptide over the time course of the experiment.

recombinant Neprilysin = biological target: T1, recombinant Neprilysin (Homo sapiens, UniProt P08473); experiment: Proteolytic resistance to neprilysin; type: in vitro ADME; conditions: pH 8.3; for remaining at 4 h / remaining at 24 h: isolated enzyme neprilysin
T1 construct: purchased R&D Systems 1182-ZNC-010
T1 sequence (P08473 52-750 limits assumed): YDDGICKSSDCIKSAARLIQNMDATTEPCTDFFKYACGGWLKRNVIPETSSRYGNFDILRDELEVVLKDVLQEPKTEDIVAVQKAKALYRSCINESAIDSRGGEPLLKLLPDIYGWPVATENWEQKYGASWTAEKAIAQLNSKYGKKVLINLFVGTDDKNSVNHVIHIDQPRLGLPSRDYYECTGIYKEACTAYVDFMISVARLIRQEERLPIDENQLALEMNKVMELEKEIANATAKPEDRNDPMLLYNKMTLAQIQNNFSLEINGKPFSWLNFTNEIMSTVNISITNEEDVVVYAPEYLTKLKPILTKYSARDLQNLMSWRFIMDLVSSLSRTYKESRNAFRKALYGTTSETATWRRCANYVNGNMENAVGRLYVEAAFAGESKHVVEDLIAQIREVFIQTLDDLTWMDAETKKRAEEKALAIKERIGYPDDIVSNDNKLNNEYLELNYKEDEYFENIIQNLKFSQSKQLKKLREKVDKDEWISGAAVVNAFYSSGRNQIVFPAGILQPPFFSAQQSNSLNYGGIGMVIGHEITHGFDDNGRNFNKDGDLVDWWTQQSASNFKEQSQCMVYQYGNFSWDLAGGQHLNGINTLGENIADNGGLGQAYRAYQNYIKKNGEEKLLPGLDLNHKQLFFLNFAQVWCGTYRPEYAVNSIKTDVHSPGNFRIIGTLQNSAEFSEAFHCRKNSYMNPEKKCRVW
Description: 10.0 μg (˜10 units) recombinant Neprilysin (R&D Systems: 1182-ZNC-010) was reconstituted to 100 μL (100 μg/mL, ˜100 units/mL) in assay buffer (50 mM Tris, 50 mM NaCl, 50 mM NaHCO3, adjusted to pH 8.3) to give the enzyme stock solution. Peptide stock solutions were prepared to a concentration of ˜250 μM (˜1.0 mg/mL of 4 kDa peptide) in assay buffer. 100 μL (10 μg, ˜10 units) of neprilysin stock solution was added to 100 μL of peptide stock solution (1.0 mg/mL, ˜100 μg of peptide) and the mixture was co-incubated in a temperature regulated incubator at 37° C. for the duration of the experiment. 25 μL aliquots (˜ 12.5 μg initial peptide) of the peptide-enzyme mixture were periodically withdrawn (t=0, 30 mins, 1 h, 2 h, 4 h and 24 h) and quenched immediately by addition to an equal volume ([…]) of 10% TFA (v/v) in 1:1 water/acetonitrile to arrest proteolytic activity. The quenched aliquot centrifuged at 7800 rpm, and 30 μL of the supernatant was analyzed by analytical RP-HPLC as follows: Analytical RP-HPLC method: Agilent Polaris C8-A column (4.6×100 mm, 3 micron) eluted with a linear binary gradient of 10-90% MeCN (0.1% TFA v/v) in water (0.1% TFA v/v) over either 10 or 15 mins at 1.5 mL min-1 at 40° C. with detection by UV absorption at 210 nm. Manual integration (AUC) allowed estimation of remaining intact peptide over the time course of the experiment.

[2] = biological target: human GLP-1 receptor (hGLP-1R) (Homo sapiens, UniProt P43220); experiment: cAMP production (HTRF) in CHO cells expressing hGLP-1R; type: cell-based; set-up: expressed in transfected cells; conditions: for EC50: geometric mean, read-out: hGLP-1R EC50; for % Relative Potency Ratio: % GLP-1R activity relative to GLP-1 / % GlucR activity relative to glucagon
human GLP-1 receptor (hGLP-1R), sequence (P43220 24-463): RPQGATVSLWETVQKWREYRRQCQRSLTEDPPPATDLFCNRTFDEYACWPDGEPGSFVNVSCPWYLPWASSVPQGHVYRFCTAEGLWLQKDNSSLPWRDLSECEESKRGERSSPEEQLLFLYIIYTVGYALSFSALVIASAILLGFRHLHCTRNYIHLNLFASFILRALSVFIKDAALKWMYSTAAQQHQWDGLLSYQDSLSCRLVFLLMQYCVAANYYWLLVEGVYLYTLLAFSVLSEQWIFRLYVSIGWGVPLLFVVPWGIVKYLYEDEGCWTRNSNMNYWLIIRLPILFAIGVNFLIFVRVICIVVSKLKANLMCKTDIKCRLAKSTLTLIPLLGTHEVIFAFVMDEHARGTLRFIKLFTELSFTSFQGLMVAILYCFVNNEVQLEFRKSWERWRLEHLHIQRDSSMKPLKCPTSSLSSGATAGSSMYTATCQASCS
In short: (§1)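 Potency values represent EC50 from 4-parameter logistic curves of HTRF % Delta F signal. Receptor-expressing CHO cells (hGCGR 2×10^5 cells/mL, hGLP-1R 1×10^5 cells/mL) were exposed for 30 min at room temperature before two-step cAMP detection.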

[3] = biological target: human glucagon receptor (hGCGR) (Homo sapiens, UniProt P47871); experiment: cAMP production (HTRF) in CHO cells expressing hGCGR; type: cell-based; set-up: expressed in transfected cells; conditions: geometric mean, read-out: hGluc-R EC50
human glucagon receptor (hGCGR), sequence (P47871 26-477): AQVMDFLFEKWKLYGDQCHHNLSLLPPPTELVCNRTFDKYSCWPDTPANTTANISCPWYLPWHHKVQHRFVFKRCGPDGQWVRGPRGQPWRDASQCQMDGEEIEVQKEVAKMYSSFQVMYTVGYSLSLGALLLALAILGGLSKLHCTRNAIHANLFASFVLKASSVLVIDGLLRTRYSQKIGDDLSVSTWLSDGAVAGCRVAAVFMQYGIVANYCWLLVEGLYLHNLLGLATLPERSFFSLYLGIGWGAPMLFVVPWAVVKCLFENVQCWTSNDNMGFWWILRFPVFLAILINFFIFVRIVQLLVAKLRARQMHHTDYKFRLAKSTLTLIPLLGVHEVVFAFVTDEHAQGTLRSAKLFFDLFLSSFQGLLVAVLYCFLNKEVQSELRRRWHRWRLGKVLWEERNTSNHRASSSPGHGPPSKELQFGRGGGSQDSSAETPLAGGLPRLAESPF
In short: as §1

[4] = Table 7, peptides modified at position 20, cAMP in CHO hGLP-1R cells
[5] = Table 7, peptides modified at position 20, cAMP in CHO hGCGR cells

Compound	remaining at 0.25 h, 125 µM [1] [%]	remaining at 0.5 h, 125 µM [1] [%]	remaining at 4 h (recombinant Neprilysin) [%]	remaining at 24 h (recombinant Neprilysin) [%]	% intact peptide over time (recombinant Neprilysin) [%]	EC50 ([2]; Table 6, peptides modified at position 17, cAMP in CHO hGLP-1R cells) [pM]	% Relative Potency Ratio ([2]; Table 6)	EC50 ([3]; Table 6, peptides modified at position 17, cAMP in CHO hGCGR cells) [pM]	EC50 [2, 4] [pM]	% Relative Potency Ratio ([2]; Table 7)	EC50 [3, 5] [pM]	% Relative Potency Ratio [2]	EC50 ([2]; cAMP, CHO cells, 0.1% BSA) [pM]	EC50 ([3]; cAMP, CHO cells, 0.1% BSA) [pM]
CC[C@H](C)[C@H](NC(=O)C(C)(C)NC(=O)[C@H](CCC(=O)O)NC(=O)[C@@H](NC(=O)[C@](C)(Cc1ccccc1)NC(=O)[C@H](CC(=O)O)NC(=O)[C@H](CCCNC(=N)N)NC(=O)[C@H](C)NC(=O)[C@H](C)NC(=O)[C@H](CCCCNC(=O)COCCOCCNC(=O)COCCOCCNC(=O)CC[C@H](NC(=O)CCCCCCCCCCCCCCCCC(=O)O)C(=O)O)NC(=O)[C@H](CO)NC(=O)[C@H](CC(=O)O)NC(=O)[C@H](CC(C)C)NC(=O)[C@](C)(Cc1ccccc1)NC(=O)[C@H](CCCCN)NC(=O)[C@H](CO)NC(=O)[C@@H](NC(=O)[C@H](CC(=O)O)NC(=O)[C@H](CO)NC(=O)[C@@H](NC(=O)[C@](C)(Cc1ccccc1)NC(=O)[C@H](CO)NC(=O)CNC(=O)[C@H](Cc1c[nH]cn1)NC(=O)C(C)(C)NC(=O)[C@@H](N)Cc1c[nH]cn1)[C@@H](C)O)C(C)C)C(C)C)C(=O)N[C@@H](C)C(=O)N[C@@H](CC(N)=O)C(=O)N[C@H](C(N)=O)[C@@H](C)O [Peptide 15] (H-H[Aib]HGS[αMeF]TSDVSK[αMeF]LDSK([AEEA-AEEA-γGlu-C18 diacid])AARD[αMeF]VE[Aib]IANT-NH2; N-terminus assumed)	91	77	100	83	100	33.1	3.7	61.4	–	–	–	–	–	–
CC[C@H](C)[C@H](NC(=O)C(C)(C)NC(=O)[C@H](CCC(N)=O)NC(=O)[C@@H](NC(=O)[C@](C)(Cc1ccccc1)NC(=O)[C@H](CC(=O)O)NC(=O)[C@H](CCCCNC(=O)COCCOCCNC(=O)COCCOCCNC(=O)CC[C@H](NC(=O)CC[C@H](NC(=O)CCCCCCCCCCCCCCCCCCC(=O)O)C(=O)O)C(=O)O)NC(=O)[C@H](C)NC(=O)[C@H](C)NC(=O)[C@H](CCCNC(=N)N)NC(=O)[C@H](CO)NC(=O)[C@H](CC(=O)O)NC(=O)[C@H](CC(C)C)NC(=O)[C@](C)(Cc1ccccc1)NC(=O)[C@H](CCCCN)NC(=O)[C@H](CO)NC(=O)[C@@H](NC(=O)[C@H](CC(=O)O)NC(=O)[C@H](CO)NC(=O)[C@@H](NC(=O)[C@H](Cc1ccccc1)NC(=O)[C@H](CO)NC(=O)CNC(=O)[C@H](Cc1c[nH]cn1)NC(=O)C(C)(C)NC(=O)[C@@H](N)Cc1c[nH]cn1)[C@@H](C)O)C(C)C)C(C)C)C(=O)N[C@@H](C)C(=O)N[C@@H](CC(N)=O)C(=O)N[C@H](C(N)=O)[C@@H](C)O [Peptide 282] (H-H[Aib]HGSFTSDVSK[αMeF]LDSRAAK([AEEA-AEEA-γGlu-γGlu-C20 diacid])D[αMeF]VQ[Aib]IANT-NH2)	83	76	100	97	100	–	–	–	1230	1.8	1140	–	–	–
CC[C@H](C)[C@H](NC(=O)C(C)(C)NC(=O)[C@H](CCC(N)=O)NC(=O)[C@@H](NC(=O)[C@](C)(Cc1ccccc1)NC(=O)[C@H](CC(=O)O)NC(=O)[C@H](CCCCNC(=O)COCCOCCNC(=O)COCCOCCNC(=O)CC[C@H](NC(=O)CC[C@H](NC(=O)CCCCCCCCCCCCCCCCCCC(=O)O)C(=O)O)C(=O)O)NC(=O)[C@H](C)NC(=O)[C@H](C)NC(=O)[C@H](CCCNC(=N)N)NC(=O)[C@H](CO)NC(=O)[C@H](CC(=O)O)NC(=O)[C@H](CC(C)C)NC(=O)[C@H](Cc1ccc(O)cc1)NC(=O)[C@H](CCCCN)NC(=O)[C@H](CO)NC(=O)[C@@H](NC(=O)[C@H](CC(=O)O)NC(=O)[C@H](CO)NC(=O)[C@@H](NC(=O)[C@](C)(Cc1ccccc1)NC(=O)[C@H](CO)NC(=O)CNC(=O)[C@H](Cc1c[nH]cn1)NC(=O)C(C)(C)NC(=O)[C@@H](N)Cc1c[nH]cn1)[C@@H](C)O)C(C)C)C(C)C)C(=O)N[C@@H](C)C(=O)N[C@@H](CC(N)=O)C(=O)N[C@H](C(N)=O)[C@@H](C)O [Peptide 283] (H-H[Aib]HGS[αMeF]TSDVSKYLDSRAAK([AEEA-AEEA-γGlu-γGlu-C20 diacid])D[αMeF]VQ[Aib]IANT-NH2)	68	48	81	63	100	–	–	–	129	8.4	552	–	–	–
CC[C@H](C)[C@H](NC(=O)[C@H](Cc1c[nH]c2ccccc12)NC(=O)[C@H](CCC(N)=O)NC(=O)[C@@H](NC(=O)[C@H](Cc1ccccc1)NC(=O)[C@H](CC(=O)O)NC(=O)[C@H](CCCCNC(=O)COCCOCCNC(=O)COCCOCCNC(=O)CC[C@H](NC(=O)CC[C@H](NC(=O)CCCCCCCCCCCCCCCCCCC(=O)O)C(=O)O)C(=O)O)NC(=O)[C@H](C)NC(=O)[C@H](C)NC(=O)[C@H](CCCNC(=N)N)NC(=O)[C@H](CO)NC(=O)[C@H](CC(=O)O)NC(=O)[C@H](CC(C)C)NC(=O)[C@](C)(Cc1ccccc1)NC(=O)[C@H](CCCCN)NC(=O)[C@H](CO)NC(=O)[C@@H](NC(=O)[C@H](CC(=O)O)NC(=O)[C@H](CO)NC(=O)[C@@H](NC(=O)[C@H](Cc1ccccc1)NC(=O)[C@H](CO)NC(=O)CNC(=O)[C@H](Cc1c[nH]cn1)NC(=O)C(C)(C)NC(=O)[C@@H](N)Cc1c[nH]cn1)[C@@H](C)O)C(C)C)C(C)C)C(=O)N[C@@H](C)C(=O)N[C@@H](CC(N)=O)C(=O)N[C@H](C(N)=O)[C@@H](C)O [Peptide 290] (H-H[Aib]HGSFTSDVSK[αMeF]LDSRAAK([AEEA-AEEA-γGlu-γGlu-C20 diacid])DFVQWIANT-NH2)	0	0	–	–	100	–	–	–	–	–	–	–	–	–
CC[C@H](C)[C@H](NC(=O)[C@H](Cc1c[nH]c2ccccc12)NC(=O)[C@H](CCCCNC(=O)COCCOCCNC(=O)COCCOCCNC(=O)CC[C@H](NC(=O)CCCCCCCCCCCCCCCCCCC(=O)O)C(=O)O)NC(=O)[C@@H](NC(=O)[C@H](Cc1ccccc1)NC(=O)[C@H](CC(=O)O)NC(=O)[C@H](CCC(N)=O)NC(=O)[C@H](C)NC(=O)[C@H](C)NC(=O)[C@H](CCCNC(=N)N)NC(=O)[C@H](CO)NC(=O)[C@H](CC(=O)O)NC(=O)[C@H](CC(C)C)NC(=O)[C@](C)(Cc1ccccc1)NC(=O)[C@H](CCCCN)NC(=O)[C@H](CO)NC(=O)[C@@H](NC(=O)[C@H](CC(=O)O)NC(=O)[C@H](CO)NC(=O)[C@@H](NC(=O)[C@](C)(Cc1ccccc1)NC(=O)[C@H](CO)NC(=O)CNC(=O)[C@H](Cc1c[nH]cn1)NC(=O)C(C)(C)NC(=O)[C@@H](N)Cc1c[nH]cn1)[C@@H](C)O)C(C)C)C(C)C)C(=O)N[C@@H](C)C(=O)N[C@@H](CC(N)=O)C(=O)N[C@H](C(N)=O)[C@@H](C)O [Peptide 367] (H-H[Aib]HGS[αMeF]TSDVSK[αMeF]LDSRAAQDFVK([AEEA-AEEA-γGlu-C20 diacid])WIANT-NH2; N-terminus assumed)	0	0	–	–	–	–	–	–	–	–	–	1.0	139	72.4
